Assays:
[1] = tested on: TFAM promoter; assay: TFAM promoter luciferase assay in primary WT myoblasts treated with DMOG; type: cell-based, mouse; conditions: DMOG versus DMSO
Experimental: TFAM promoter, VHL promoter, HRE and c-Myc activity were determined using a luciferase-based system. Luciferase activity was measured using the Dual-Luciferase Reporter Assay System (Promega) with Renilla as the reference.
TFAM promoter activity was evaluated using a TFAM promotes-luc plasmid. A fragment of the mouse Tfam promoter (1.4 kb upstream of the coding sequence) was cloned into a pGL4.15 vector (Promega). Luciferase activity was measured using the Dual-Luciferase Reporter Assay System (Promega) with Renilla as the reference 48 h after transfection.
c-Myc was previously shown to directly bind to the TFAM promoter in cancer cells (Li et al., 2005) and consistent with this report, it was observed that knockdown of c-Myc in primary myoblasts leads to decreased TFAM promoter activity (FIG. 16E). Mutation of the c-Myc consensus sequence, CACGTG, present in the TFAM promoter decreased the promoter activity by about half of the full length promoter (FIG. 16F). […] Next it was tested whether c-Myc binding site was required for SIRT1's ability to induce TFAM promoter activity. Overexpression of SIRT1 in primary myoblasts lead to an increase in the full length TFAM promoter activity, however disruption of c-Myc binding site was sufficient to completely prevent the ability of SIRT1 to induce TFAM promoter activity (FIG. 16H). […]

[2] = tested on: primary myoblasts; assay: NMN in primary myoblasts with NMNAT1 knockdown, qPCR of mitochondrial-encoded genes; type: cell-based, mouse; conditions: cells with knockdown of NMNAT1 versus nontargeting shRNA
From the text: FIGS. 17A-17L reveal that increasing NAD+ levels rescues age-related mitochondrial and muscle dysfunction through a SIRT1-HIF-1α pathway. FIG. 17A depicts NAD+ levels in gastrocnemius of 3- and 24-month-old mice treated with either the vehicle (PBS) or NMN (n=5, *p<0.05 versus 3-month-old PBS animals, #p<0.05 versus 24-month-old PBS animals). FIG. 17B depicts ATP content in gastrocnemius of 6- and 22-month-old mice treated with either the vehicle (PBS) or NMN (n=6). FIG. 17C depicts expression of mitochondrial-encoded genes (ND1, Cytb, COX1 and ATP6) analyzed by qPCR in gastrocnemius of 6- and 22-month-old mice treated with either the vehicle (PBS) or NMN. Relative expression values were normalized to 6-months old PBS mice (n=6). […] FIG. 17F depicts expression of mitochondrial-encoded genes (ND1, Cytb, COX1 and ATP6) analyzed by qPCR in gastrocnemius of WT and Egln1 KO mice treated with either the vehicle (PBS) or NMN. […] FIG. 17H depicts expression of mitochondrial-enoded genes (ND1, Cytb, COX1 and ATP6) analyzed by qPCR in primary myoblasts WT cells infected with NMNAT1 or nontargeting shRNA treated with either the vehicle (PBS) or NMN. […] FIG. 17I depicts expression of mitochondrial-encoded genes (ND1, Cytb, COX1 and ATP6) analyzed by qPCR in gastrocnemius of WT and SIRT1 KO mice treated with either the vehicle (PBS) or NMN. […] Values are expressed as mean±SEM. […]

Structure (SMILES) | full length TFAM promoter activity [1] | TFAM promoter activity, c-Myc consensus sequence mutation ([1]; in the absence of the c-Myc binding site) | ability of NMN to induce the expression of mitochondrial-encoded genes [2]
COC(=O)CNC(=O)C(=O)OC [DMOG, dimethyloxaloylglycine] | reduces | does not have an additive effect | –
NC(=O)c1ccc[n+]([C@@H]2O[C@H](COP(=O)([O-])O)[C@@H](O)[C@H]2O)c1 [NMN, nicotinamide mononucleotide] | – | – | completely abolishes
